Experimental data reported in patent US6124308A, “Optically active phenyl pyrimidine derivatives as analgesic agent” (priority 1995, dated 2000).
pIC50: −log10 of the molar value. Read-outs that look alike come from different tables or passages of the source.

How the values were obtained:
[1] = tested on: veratrine-evoked glutamate release from rat brain slices; assay: Inhibition of veratrine-evoked glutamate release; type: cell-based; conditions: at 10 μM
[2] = tested on: maximal electroshock seizure; assay: Maximal electroshock test, mice, different routes of administration; type: in vivo, mouse; conditions: for ED50: Mus musculus, mice, 1 hour, read-out: ED50 (95% limits)
[3] = tested on: electrical activity of the external oblique muscle (egg albumin sensitised rats); assay: Irritable bowel syndrome model: colorectal distension in egg albumin sensitised rats; type: in vivo, rat; conditions: 10 mg/kg p.o., 60 minutes before pressure response curve
Method: Male Listar hooded rats weight range 100-150 g were used.
The rats were sensitised by dosing ip (1 ml per rat) with a solution containing egg albumin, (10 ug/ml) pertusssis vaccine (1 mg/ml) and aluminium hydroxide (10 mg/ml). Control animals received saline.
Seven days later the rats were anaesthetised using isofurane and the external oblique muscle exposed. Two nichrome wires were implanted into the muscles and the wires exteriorised to the back of the neck, the skin was sutured and the animals were allowed to recover.
Six days later the animals were fasted overnight. On the following day the animals were anaesthetised and the colorectum washed out using saline. A 4 cm long latex balloon tied to a portex cannula was connected to an inflation device, and the nichrome electrodes at the back of the neck were connected to head stage.
The electrical activity of the external oblique muscle was recorded by a data capture system (`spike2`) which calculated the number of electrical spikes. Sequential pressure response curves (10-100 mmHg) in sensitised and the control animals were constructed. The balloon was inflated for 1 min at each pressure, followed by a rest period of 5 min.
The mean number of spikes at each pressure was calculated for the control animals, sensitised animals and sensitised animals treated with the R(-) enantiomer. […]

[4] = tested on: PGE2-induced acute hyperalgesia; assay: Effects on the development of PGE2-induced acute hyperalgesia (paw pressure); type: in vivo, rat; conditions: p.o., 1 h before PGE2 (100 ng), n=5
Method: Effects on the development of PGE2 -induced acute hyperalgesia
Reaction times to paw pressure were measured 3 h after PGE2 injection. Ataxia was scored at the same time by observation of the rats placed in an arena.

[5] = tested on: established PGE2-induced acute hyperalgesia; assay: Effects on established PGE2-induced acute hyperalgesia (paw pressure); type: in vivo; conditions: Rattus norvegicus, po, 2 h after PGE2 (100 ng); read-out: analgesia ED50 and 95% confidence limits
Method: Effects on established PGE2 -induced acute hyperalgesia
The R(-)enantiomer was given orally 2 h after subplantar injection of PGE2 (100 ng) when the hyperalgesia was established. Reaction time to paw pressure was measured 3 h after the PGE2 administration.

[6] = tested on: native channels in cultured rat striatal neurones (Na+ currents); assay: Native sodium channels in cultured rat striatal neurones, whole-cell recording; type: cell-based
Text: The action of the R(-)enantiomer on native channels in cultured rat striatal neurones was studied using whole-cell recording techniques.

[7] = molecular target: T1, rat liver DHFR (Rattus norvegicus, UniProt Q920D2); assay: Activity against dihydrofolate reductase (DHFR), spectrophotometric assay; type: biochemical
T1 construct: rat liver DHFR; from tissue; host or cells: rat liver
T1 sequence (Q920D2 1-187): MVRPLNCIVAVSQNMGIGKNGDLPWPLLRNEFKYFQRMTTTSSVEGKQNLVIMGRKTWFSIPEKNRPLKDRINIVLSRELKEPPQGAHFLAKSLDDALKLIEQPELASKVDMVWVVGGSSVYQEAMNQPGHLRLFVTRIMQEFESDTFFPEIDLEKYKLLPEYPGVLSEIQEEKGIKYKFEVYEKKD

[8] = tested on: striatal dopamine in MPTP injected C57B1/6 mice; assay: MPTP induced neurotoxic model, striatal dopamine levels; type: in vivo, mouse
Method: Six-week old male C57B1/6 mice (Japan SLC Co., Hamamatu) were housed ten per case in a temperature-controlled room under a 12-hours light/12-hours dark cycle with free access to food and water.
Mice received i.p. injections of the R(-) enantiomer and the S(+) enantiomer (30 mg/kg) in olive oil starting 12 hours before MPTP injection and every 12 hours for the next 5-injections. Control mice received olive oil only.
Mice receive s.c. injection of MPTP-HCl (40 mg of free base per kg; Research Biochemicals) in saline. Control mice received saline only.
HPLC with electrochemical detection was used to measure striatal levels of dopamine (J.C. Garcia': Journal of Chromatography B. 656 (1994) 77-80).
Seven days after the MPTP injection, mice ([…]) were killed and striata were dissected out, immediately frozen, and stored at -80° C. until analysis. On the day of the assay, tissue samples were sonicated in 10 vol(wt/vol) of 0.1M perchloric acid /1.9 mM sodium hydrogen sulfite containing 1.6μg/ml 3,4-dihydroxybenzylamine hydrobromide(Sigma) as an internal standard. After centrifugation (2,800× g for 10 min at room temperature) and filtration (0.5 μm; Millipore membrane filter), 10 μl of supernatant was injected onto an Inertsil ODS3 column (4.6×250 mm; GL Science, Tokyo). The mobile phase consisted of 88% 115 mM NaH2 PO4 /0.178 mM Na2 EDTA /0.92 mM 1-octanesulfonic acid (pH=2.6) solution and 12% ethanol. F low rate was 1.0 ml/min. Peaks were detected by a Shimazu electrochemical detector LECD-6A(700 mV).

[9] = tested on: hind-limb extension (maximal electroshock seizure); assay: Maximal electroshock test, rats, i.p., duration of action; type: in vivo, rat; conditions: for ED50: Rattus norvegicus, ip, read-out: ED50 (95% limits)
[10] = Half-life in male rats; type: in vivo, rat; conditions: rat, in vivo, read-out: half-life (t1/2) (converted)
[11] = molecular target: T2, rat type IIA sodium channels (Rattus norvegicus, UniProt P04775); assay: Recombinant rat type IIA sodium channels in chinese hamster ovary cells, whole-cell recording; type: cell-based; conditions: for pIC50: read-out: IC50 (inhibition of Na+ currents)
T2 construct: no beta subunit mentioned
Text: The IC50 's at two different holding potentials (Vh) were as follows: […]

[12] = tested on: whole-cell sodium currents in cultured rat hippocampal neurones; assay: Whole-cell sodium currents in cultured embryonic rat hippocampal neurones, patch-clamp; type: cell-based
Text: (b) Cultured embryonic rat hippocampal neurones
Sodium currents were elicited by the application of 20 msec dipolarisng pulses, thereby lowering membrane potential to -10 mV from a holding potential of -60 mV.

T2 sequence (P04775 whole entry): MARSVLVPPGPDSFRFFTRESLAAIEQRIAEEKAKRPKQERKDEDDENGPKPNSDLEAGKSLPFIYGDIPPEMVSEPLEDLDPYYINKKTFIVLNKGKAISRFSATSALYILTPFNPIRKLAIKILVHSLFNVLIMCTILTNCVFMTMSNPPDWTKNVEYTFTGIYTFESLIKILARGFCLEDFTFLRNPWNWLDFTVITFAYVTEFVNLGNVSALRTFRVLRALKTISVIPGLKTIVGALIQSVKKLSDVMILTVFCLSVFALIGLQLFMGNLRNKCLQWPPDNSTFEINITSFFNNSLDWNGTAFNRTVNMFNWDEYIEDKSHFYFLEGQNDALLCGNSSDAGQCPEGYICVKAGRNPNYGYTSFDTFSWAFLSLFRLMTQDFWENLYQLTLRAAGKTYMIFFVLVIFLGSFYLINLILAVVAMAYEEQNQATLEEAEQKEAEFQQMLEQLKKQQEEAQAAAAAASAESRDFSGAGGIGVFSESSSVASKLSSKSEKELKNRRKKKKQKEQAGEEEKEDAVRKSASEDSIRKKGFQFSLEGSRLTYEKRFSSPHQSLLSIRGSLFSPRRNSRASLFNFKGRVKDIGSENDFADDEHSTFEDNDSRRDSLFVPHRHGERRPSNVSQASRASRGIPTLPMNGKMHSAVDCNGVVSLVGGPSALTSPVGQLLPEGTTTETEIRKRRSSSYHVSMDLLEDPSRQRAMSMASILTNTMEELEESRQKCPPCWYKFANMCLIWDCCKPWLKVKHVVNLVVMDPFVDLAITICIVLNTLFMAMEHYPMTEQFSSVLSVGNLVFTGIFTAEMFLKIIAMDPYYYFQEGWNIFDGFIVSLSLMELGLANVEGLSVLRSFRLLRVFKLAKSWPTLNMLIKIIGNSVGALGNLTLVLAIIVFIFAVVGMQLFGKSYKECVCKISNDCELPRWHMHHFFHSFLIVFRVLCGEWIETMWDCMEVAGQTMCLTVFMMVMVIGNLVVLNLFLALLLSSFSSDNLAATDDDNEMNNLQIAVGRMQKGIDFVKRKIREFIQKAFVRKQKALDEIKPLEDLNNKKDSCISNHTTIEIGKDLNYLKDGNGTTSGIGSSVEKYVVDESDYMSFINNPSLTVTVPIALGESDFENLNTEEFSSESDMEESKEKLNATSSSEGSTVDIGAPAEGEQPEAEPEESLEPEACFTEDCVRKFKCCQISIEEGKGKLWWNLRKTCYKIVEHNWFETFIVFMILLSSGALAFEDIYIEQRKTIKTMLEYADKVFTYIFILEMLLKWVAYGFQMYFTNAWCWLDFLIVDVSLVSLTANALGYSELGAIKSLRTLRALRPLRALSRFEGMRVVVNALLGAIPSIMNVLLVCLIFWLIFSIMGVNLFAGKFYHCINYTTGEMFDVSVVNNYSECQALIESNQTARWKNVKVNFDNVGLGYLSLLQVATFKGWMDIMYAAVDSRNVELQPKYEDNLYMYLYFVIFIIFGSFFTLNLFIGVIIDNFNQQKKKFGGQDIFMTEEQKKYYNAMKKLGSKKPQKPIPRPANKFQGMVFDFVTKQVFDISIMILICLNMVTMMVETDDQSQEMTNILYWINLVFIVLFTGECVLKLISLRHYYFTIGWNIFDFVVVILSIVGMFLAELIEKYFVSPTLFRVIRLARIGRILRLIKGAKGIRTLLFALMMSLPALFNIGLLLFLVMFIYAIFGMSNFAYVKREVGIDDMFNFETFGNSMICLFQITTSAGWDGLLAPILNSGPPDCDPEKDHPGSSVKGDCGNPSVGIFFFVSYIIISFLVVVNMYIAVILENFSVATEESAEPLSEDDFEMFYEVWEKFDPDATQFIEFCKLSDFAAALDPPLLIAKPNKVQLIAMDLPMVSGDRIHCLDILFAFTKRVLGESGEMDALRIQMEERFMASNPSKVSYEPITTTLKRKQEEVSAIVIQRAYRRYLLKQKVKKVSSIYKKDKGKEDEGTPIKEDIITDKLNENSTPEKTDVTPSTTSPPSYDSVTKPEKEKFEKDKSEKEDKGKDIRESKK

## Nc1nc(N)c(-c2cccc(Cl)c2Cl)c(CF)n1 [R(-)enantiomer, R(-)-2,4-diamino-5-(2,3-dichlorophenyl)-6-fluoromethyl pyrimidine]
[1]
  inhibition of veratrine-evoked glutamate release: 64%
[2]; ip, i.p.
  ED50: 1.3 mg/kg
[2]; po, p.o.
  ED50: 1.2 mg/kg
[2]; sc, s.c.
  ED50: 0.96 mg/kg
[2]; in rats and mice
  times more potent than lamotrigine in the maximal electroshock test: 2-3 times
[2]; maximal electroshock, rats and mice
  activity by the various routes tested: approximately equiactive by the various routes tested
[3]
  reversal of the changes induced by egg albumin: complete reversal
[4]
  Analgesia ED50 (95% limits): 2.5 (2.2-2.9) mg/kg
[5]
  ED50: 3.4 mg/kg
[6]
  inhibition of Na+ currents: concentration- and voltage-dependent inhibition of Na^+ currents
[6]; 10-30 μM, Vh = -120 mV
  inhibition by 10-30 μM on hyperpolarising the cells: virtually eliminated
[6]; Rattus norvegicus, holding potential (Vh) of 60 mV, read-out: IC50 (inhibition of Na+ currents)
  pIC50: ~5.10
[6]; Vh = -90 mV
  potency at Vh = -90 mV compared with IC50 at 60 mV: much lower potency
[7]
  inhibition at 100 µM: 25%
[8]; 30 mg/kg i.p. 6 times, MPTP 40 mg/kg s.c.
  % protection: 81.0%
[8]; 30 mg/kg i.p. 6 times, MPTP 40 mg/kg s.c., day 7
  Dopamine content in the striatum: 12.45 ± 1.18 μg/g wet tissue
[8]; 30 mg/kg i.p., day -1 to 7
  % mortality: 0%
[9]; 8 h, i.p., rats, 8 hours
  ED50: 5.9 mg/kg
[9]; 24 h, i.p., rats, 24 hours
  ED50: 12.9 mg/kg
[9]; anticonvulsant, rats, i.p.
  times more active than its S(=)enantiomer: 15-20 times
  times more active than lamotrigine: 2-3 times
[9]; i.p., 2 hrs, calculated as the base, p<0.05, listed as R(-) enantiomer base, 120 min
  ED50 at 2 hrs (isethionate salt versus base): 2.5 mg/kg
[9]; i.p., rats, 0.5 hours, 30 min
  ED50 (95% limits): 1.3 (0.9-1.9) mg/kg
[9]; i.p., rats, 1 hour, 60 min
  ED50 (95% limits): 1.0 (0.7-1.5) mg/kg
[9]; i.p., rats, 2 hours, 120 min
  ED50 (95% limits): 1.2 (0.8-1.7) mg/kg
[9]; i.p., rats, 4 hours, 240 min
  ED50 (95% limits): 2.3 (1.6-3.4) mg/kg
[9]; maximal electroshock
  duration of action: long duration of action
[10]
  half-life: 5.4 h
[11]; R(-)enantiomer 1-500 μM
  inhibition of Na+ currents: inhibition of Na^+ currents in a concentration-dependent and voltage-dependent manner
[11]; Vh = -60 mV
  pIC50: 4.74
[11]; Vh = -90 mV
  pIC50: 3.80
[12]; 20 msec pulses to -10 mV from holding potential -60 mV, read-out: IC50 (reduction of peak sodium current)
  pIC50: 5.40
[12]; holding potential -60 mV
  reduction of peak sodium current: concentration-dependent reduction of peak sodium current
